Laboratory results as given in US12617757B2, “Compounds and modules for inhibition of pre-miR-21 and their use in treatment of certain cancers” (University of Florida Research Foundation, Incorporated, priority 2019, dated 2026).

Columns and labels:
pre-miR-21 = experiment: Cellular Chem-CLIP / C-Chem-CLIP in MDA-MB-231 cells; assay type: cell-based, human
Procedure: Cellular Chem-CLIP/C-Chem-CLIP. The MDA-MB-231 cells were grown to ˜70% confluency as monolayers in 60 mm dishes. The cells were treated with Chem-CLIP compounds (8 or 9) and/or non-cross-linking competitors (1 or 2) for 48 h. Total RNA was extracted using a Quick-RNA MiniPrep Kit (Zymo Research) per the manufacturer's protocol. Approximately 20-30 μg of total RNA was then incubated with 100 μL of streptavidin-agarose beads (Sigma-Aldrich) and shaken for 1 h at room temperature. The solution was removed beads washed six times with 1×PBS. The RNA bound to beads was released, purified, and used for RT-qPCR as previously described^23. Relative fold enrichment of the measured RNA before and after pulldown was measured using equation 3 (Eq. 3): Relative Fold Enrichment=2^−(ΔC^t^before pulldown−ΔC^t^after pulldown) (Eq. 3)
where “ΔCt before pulldown” is the difference between the Ct values for the RNA of interest and a housekeeping gene in total RNA from cells and “ΔCt after pulldown” is the difference between the Ct values for the RNA of interest and the same housekeeping gene in RNA after pulldown.

[1] = tested on: proteome of MDA-MB-231 cells; experiment: Global proteomics profiling (LC-MS/MS) of MDA-MB-231 cells; assay type: cell-based, human; settings: 50 nM, versus all proteins
Procedure: Global proteomics profiling using LC-MS/MS. The MDA-MB-231 cells treated with vehicle (DMSO) or 5 (50 nM) were washed with PBS, harvested by scraping, centrifuged at 1500×g for five minutes at 4° C. and then resuspended in PBS. Cells were lysed by sonication and lysate protein concentrations were determined using a Bradford assay (Bio-Rad). Protein samples (40 μg) were denatured with 6 M urea in 50 mM NH4HCO3, reduced with 10 mM tris(2-carboxyethyl)phosphine hydrochloride (TCEP) for 30 minutes, and then alkylated with 25 mM iodoacetamide for 30 minutes in the dark. Samples were diluted to 2 M urea with 50 mM NH4HCO3, and digested with trypsin (2 μL of 0.5 μg/μL) in the presence of 1 mM CaCl2) for 12 hours at 37° C. […] Samples were analyzed by LC-MS/MS (see below) and the MS data was processed with MaxQuant and Proteome Discoverer (see below).
LC-MS/MS analysis: Peptides were resuspended in water with 0.1% formic acid (FA) and analyzed using an EASY-nLC 1200 nano-UHPLC coupled to Q Exactive HF-X Quadrupole-Orbitrap mass spectrometer (Thermo Scientific). […]
MaxQuant analysis: The MS data was analyzed with MaxQuant (V1.6.1.0)^27 and searched against the human proteome (Uniprot) and a common list of contaminants (included in MaxQuant). […] The minimum peptide length was set to 6 amino acids and peptide re-quantification and label-free quantification (MaxLFQ) were enabled. […]

Row | SMILES | potency in occupying pre-miR-21 in cells versus Formula 1 (C-Chem-CLIP) (pre-miR-21; MDA-MB-231) [fold] | competition of Chem-CLIP enrichment (C-Chem-CLIP) (pre-miR-21; MDA-MB-231, versus probe 8) | median log fold-change of predicted downstream protein targets of miR-21 [1]
1 | CCCN(CC(=O)N(CCC)CC(=O)N(CCC)CC(=O)N(CC(N)=O)Cc1cn(CCCNC(=O)CCCOc2ccc(-c3nc4cc(-c5ccc(N6CCN(C)CC6)cc5)ccc4[nH]3)cc2)nn1)C(=O)CNCc1cn(CCCNC(=O)CCCOc2ccc(-c3nc4cc(-c5ccc(N6CCN(C)CC6)cc5)ccc4[nH]3)cc2)nn1 [Compound 2] | 20 | enrichment is depleted | –
2 | CCCN(CC(=O)N(CCC)CC(=O)N(CCC)CC(=O)N(CC(=O)NCCOCCOCCOCCOc1ccc(C=C2SC(Nc3ccccc3)=C(C(=O)OCC)C2=O)cc1O)Cc1cn(CCCNC(=O)CCCOc2ccc(-c3nc4cc(-c5ccc(N6CCN(C)CC6)cc5)ccc4[nH]3)cc2)nn1)C(=O)CN(Cc1cn(CCCNC(=O)CCCOc2ccc(-c3nc4cc(-c5ccc(N6CCN(C)CC6)cc5)ccc4[nH]3)cc2)nn1)C(C)=O [Compound 5] | – | – | significantly upregulated relative to all proteins
